Molecular target: T1, SYK (Homo sapiens, UniProt P43405)
T1 construct: 2.5 nM SYK, 400 nM Biotin-Aha-Aha-KEDPDYEWPSAKK
Test: SYK flash plate assay (enzyme assay)
Assay type: biochemical
Procedure, shortened: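 Radiometric Flashplate format: biotinylated peptide substrate (400 nM) and 33P-labelled ATP (10 μM) react with 2.5 nM enzyme for 1 hour at 30 °C in Hepes buffer, pH 7.5. After EDTA quench and washing, counts are taken; staurosporine defines non-specific signal, and IC50 values are derived.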

IC50 [µM] | Structure (SMILES)
0.3 to 3 | CC1(C)C(=O)Nc2cc(Nc3nc4c(NS(=O)(=O)c5ccccc5)nccn4n3)ccc21 [E111, N-[2-(3,3-dimethyl-2-oxo-2,3-dihydro-1H-indol-6-ylamino)-[1,2,4]triazolo[1,5-a]pyrazin-8-yl]-benzenesulfonamide]
< 0.1 | CC1(C)C(=O)Nc2cc(Nc3nc4c(N5CCC6(CNC(=O)C6)C5)nccn4n3)ccc21 (centres unmarked) [E20, 3,3-dimethyl-6-[8-(8-oxo-2,7-diaza-spiro[4.4]non-2-yl)-[1,2,4]triazolo[1,5-a]pyrazin-2-ylamino]-1,3-dihydro-indol-2-one]
0.3 to 3 | CC1(C)C(=O)Nc2cc(Nc3nc4c(N5CCC[C@@H]5C(N)=O)nccn4n3)ccc21 [E22, (R)-1-[2-(3,3-dimethyl-2-oxo-2,3-dihydro-1H-indol-6-ylamino)-[1,2,4]triazolo[1,5-a]pyrazin-8-yl]-pyrrolidine-2-carboxylic acid amide]
< 0.1 | CC1(C)C(=O)Nc2cc(Nc3nc4c(N5CCCCC5)nccn4n3)ccc21 [E69, 3,3-dimethyl-6-(8-piperidin-1-yl-[1,2,4]triazolo[1,5-a]pyrazin-2-ylamino)-1,3-dihydro-indol-2-one]
0.3 to 3 | CC1(C)C(=O)Nc2cc(Nc3nc4c(N[C@H]5CC[C@H](O)CC5)nccn4n3)ccc21 [C76, trans-6-[8-(4-hydroxy-cyclohexylamino)-[1,2,4]triazolo[1,5-a]pyrazin-2-ylamino]-3,3-dimethyl-1,3-dihydro-indol-2-one]
0.3 to 3 | CC1(C)CC(=O)Nc2cc(Nc3nc4c(N5CC(O)CC5c5ccccc5)nccn4n3)ccc21 (centres unmarked) [E96, 7-[8-(4-hydroxy-2-phenyl-pyrrolidin-1-yl)-[1,2,4]triazolo[1,5-a]pyrazin-2-ylamino]-4,4-dimethyl-3,4-dihydro-1H-quinolin-2-one]
0.1 to 0.3 | CC1(C)C(=O)Nc2cc(Nc3nc4c(N5CCC6(CCNCC6)C5=O)nccn4n3)ccc21 [E141, 2-[2-(3,3-dimethyl-2-oxo-2,3-dihydro-1H-indol-6-ylamino)-[1,2,4]triazolo[1,5-a]pyrazin-8-yl]-2,8-diaza-spiro[4.5]decan-1-one]
< 0.1 | CC1(C)C(=O)Nc2cc(Nc3nc4c(N5CCC6(CC5)CNC(=O)C6)nccn4n3)ccc21 [E63, 8-[2-(3,3-dimethyl-2-oxo-2,3-dihydro-1H-indol-6-ylamino)-[1,2,4]triazolo[1,5-a]pyrazin-8-yl]-2,8-diaza-spiro[4.5]decan-3-one]
< 0.1 | CC1(C)C(=O)Nc2cc(Nc3nc4c(N5CCC6(CN[C@H](C(F)(F)F)C6)C5)nccn4n3)ccc21 (stereo partly drawn) [E153, 3,3-dimethyl-6-[8-((S)-8-trifluoromethyl-2,7-diaza-spiro[4.4]non-2-yl)-[1,2,4]triazolo[1,5-a]pyrazin-2-ylamino]-1,3-dihydro-indol-2-one]
0.3 to 3 | CC1(C)C(=O)Nc2cc(Nc3nc4c(N(CCO)C5CCNCC5)nccn4n3)ccc21 [C93, 6-{8-[(2-hydroxy-ethyl)-piperidin-4-yl-amino]-[1,2,4]triazolo[1,5-a]pyrazin-2-ylamino}-3,3-dimethyl-1,3-dihydro-indol-2-one]
3 to 50 | CC1(C)C(=O)Nc2cc(Nc3nc4c(N5C[C@@H](O)C[C@H]5c5ccccc5)nccn4n3)ccc21 [E29, 6-[8-((2S,4S)-4-hydroxy-2-phenyl-pyrrolidin-1-yl)-[1,2,4]triazolo[1,5-a]pyrazin-2-ylamino]-3,3-dimethyl-1,3-dihydro-indol-2-one]
0.3 to 3 | CN(CCc1ccccn1)c1nccn2nc(Nc3ccc4c(c3)NC(=O)C4(C)C)nc12 [E90, 3,3-dimethyl-6-{8-[methyl-(2-pyridin-2-yl-ethyl)-amino]-[1,2,4]triazolo[1,5-a]pyrazin-2-ylamino}-1,3-dihydro-indol-2-one]
< 0.1 | CC1(C)C(=O)Nc2cc(Nc3nc4c(N5CCc6ccc(C#N)cc6C5)nccn4n3)ccc21 [E124, 2-[2-(3,3-dimethyl-2-oxo-2,3-dihydro-1H-indol-6-ylamino)-[1,2,4]triazolo[1,5-a]pyrazin-8-yl]-1,2,3,4-tetrahydro-isoquinoline-7-carbonitrile]
< 0.1 | CC1(C)C(=O)Nc2cc(Nc3nc4c(-c5cnc6c(c5)CCCO6)nccn4n3)ccc21 [E116, 6-[8-(3,4-Dihydro-2H-pyrano[2,3-b]pyridin-6-yl)-[1,2,4]triazolo[1,5-a]pyrazin-2-ylamino]-3,3-dimethyl-1,3-dihydro-indol-2-one]
3 to 50 | CC1(C)C(=O)Nc2cc(Nc3nc4c(O[C@@H]5CN[C@@H](c6ccccc6C(F)(F)F)C5)nccn4n3)ccc21 [E82, 3,3-dimethyl-6-{8-[(3S,5R)-5-(2-trifluoroinethyl-phenyl)-pyrrolidin-3-yloxy]-[1,2,4]triazolo[1,5-a]pyrazin-2-ylamino}-1,3-dihydro-indol-2-one]
0.3 to 3 | CC1(C)C(=O)Nc2cc(Nc3nc4c(N5CCCC6(C5)NC(=O)NC6=O)nccn4n3)ccc21 (centres unmarked) [C110, 7-[2-(3,3-dimethyl-2-oxo-2,3-dihydro-1H-indol-6-ylamino)-[1,2,4]triazolo[1,5-a]pyrazin-8-yl]-1,3,7-triaza-spiro[4.5]decane-2,4-dione]

IC50 [µM] | Structure (SMILES)
3 to 50 | COC1=CC2C=CN=C2C=C1Nc1nc2c(N3CCC4(CC3)CNC(=O)O4)nccn2n1 (centres unmarked) [E61, 8-[2-(5-methoxy-3aH-indol-6-ylamino)-[1,2,4]triazolo[1,5-a]pyrazin-8-yl]-1-oxa-3,8-diaza-spiro[4.5]decan-2-one]
< 0.1 | CC1(C)CCCc2cc(Nc3nc4c(N5CCC6(CC5)CNC(=O)O6)nccn4n3)ccc21 [E54, 8-[2-(5,5-dimethyl-5,6,7,8-tetrahydro-naphthalen-2-ylamino)-[1,2,4]triazolo[1,5-a]pyrazin-8-yl]-1-oxa-3,8-diaza-spiro[4.5]decan-2-one]
< 0.1 | COc1ccc2c(c1)CCN2c1nccn2nc(Nc3ccc4c(c3)NC(=O)C4(C)C)nc12 [E81, 6-[8-(5-methoxy-2,3-dihydro-indol-1-yl)-[1,2,4]triazolo[1,5-a]pyrazin-2-ylamino]-3,3-dimethyl-1,3-dihydro-indol-2-one]
0.3 to 3 | CC1(C)C(=O)Nc2cc(Nc3nc4c(Nc5n[nH]c(C(F)(F)F)n5)nccn4n3)ccc21 [E60, 3,3-dimethyl-6-[8-(5-trifluoromethyl-1H-[1,2,4]triazol-3-ylamino)-[1,2,4]triazolo[1,5-a]pyrazin-2-ylamino]-1,3-dihydro-indol-2-one]
< 0.1 | CC1(C)CC(=O)Nc2cc(Nc3nc4c(N5CCC6(CC(=O)NC6=O)C5)nccn4n3)ccc21 (centres unmarked) [E7, 7-[2-(4,4-dimethyl-2-oxo-1,2,3,4-tetrahydro-quinolin-7-ylamino)-[1,2,4]triazolo[1,5-a]pyrazin-8-yl]-2,7-diaza-spiro[4.4]nonane-1,3-dione]
< 0.1 | CC1(C)CCNc2cc(Nc3nc4c(N5CCN6C(=O)CNC(=O)C6C5)nccn4n3)ccc21 (centres unmarked) [E154, 8-[2-(4,4-dimethyl-1,2,3,4-tetrahydro-quinolin-7-ylamino)-[1,2,4]triazolo[1,5-a]pyrazin-8-yl]-hexahydro-pyrazino[1,2-a]pyrazine-1,4-dione]
0.1 to 0.3 | Cn1cc(-c2nccn3nc(Nc4ccc(CS(=O)(=O)O)c(N)c4)nc23)cn1 [E36, {2-amino-4-[8-(1-methyl-1H-pyrazol-4-yl)-[1,2,4]triazolo[1,5-a]pyrazin-2-ylamino]-phenyl}-methanesulfonic acid]
< 0.1 | CC1(C)C(=O)Nc2cc(Nc3nc4c(N5CC6CCC(C5)O6)nccn4n3)ccc21 [E67, 3,3-dimethyl-6-[8-(8-oxa-3-aza-bicyclo[3.2.1]oct-3-yl)-[1,2,4]triazolo[1,5-a]pyrazin-2-ylamino]-1,3-dihydro-indol-2-one]
0.1 to 0.3 | CC(=O)N1CCC(N(C)c2nccn3nc(Nc4ccc5c(c4)NC(=O)C5(C)C)nc23)CC1 [E14, 6-{8-[(1-acetyl-piperidin-4-yl)-methyl-amino]-[1,2,4]triazolo[1,5-a]pyrazin-2-ylamino}-3,3-dimethyl-1,3-dihydro-indol-2-one]
< 0.1 | CC1(C)C(=O)Nc2cc(Nc3nc4c(N5CCCC(=O)CC5)nccn4n3)ccc21 [E72, 3,3-dimethyl-6-[8-(4-oxo-azepan-1-yl)-[1,2,4]triazolo[1,5-a]pyrazin-2-ylamino]-1,3-dihydro-indol-2-one]
0.3 to 3 | CC(=O)N(C)C1CCN(c2nccn3nc(Nc4ccc5c(c4)NC(=O)C5(C)C)nc23)C1 (centres unmarked) [E11, N-{1-[2-(3,3-dimethyl-2-oxo-2,3-dihydro-1H-indol-6-ylamino)-[1,2,4]triazolo[1,5-a]pyrazin-8-yl]-pyrrolidin-3-yl}-N-methyl-acetamide]
< 0.1 | CN(C)c1ccc(-c2nccn3nc(Nc4ccc5c(c4)NC(=O)C5(C)C)nc23)cn1 [E139, 6-[8-(6-dimethylamino-pyridin-3-yl)-[1,2,4]triazolo[1,5-a]pyrazin-2-ylamino]-3,3-dimethyl-1,3-dihydro-indol-2-one]
< 0.1 | CC1(C)C(=O)Nc2cc(Nc3nc4c(-c5cnn(C6CCNCC6)c5)nccn4n3)ccc21 [E150, 3,3-dimethyl-6-[8-(1-piperidin-4-yl-1H-pyrazol-4-yl)-[1,2,4]triazolo[1,5-a]pyrazin-2-ylamino]-1,3-dihydro-indol-2-one]
< 0.1 | CC1(C)CNc2cc(Nc3nc4c(N5CCCCCC5)nccn4n3)ccc21 [E99, (8-azepan-1-yl-[1,2,4]triazolo[1,5-a]pyrazin-2-yl)-(3,3-dimethyl-2,3-dihydro-1H-indol-6-yl)-amine]
0.3 to 3 | CC1(C)C(=O)Nc2cc(Nc3nc4c(N5CCC6(CNC(=O)CO6)C5)nccn4n3)ccc21 (centres unmarked) [E120, 2-[2-(3,3-dimethyl-2-oxo-2,3-dihydro-1H-indol-6-ylamino)-[1,2,4]triazolo[1,5-a]pyrazin-8-yl]-6-oxa-2,9-diaza-spiro[4.5]decan-8-one]
0.1 to 0.3 | CC1(C)C(=O)Nc2cc(Nc3nc4c(N5CCC6(CCNC6=O)C5)nccn4n3)ccc21 (centres unmarked) [E19, 3,3-dimethyl-6-[8-(6-oxo-2,7-diaza-spiro[4.4]non-2-yl)-[1,2,4]triazolo[1,5-a]pyrazin-2-ylamino]-1,3-dihydro-indol-2-one]

— patent US9120804B2, “8-substituted 2-amino-[1,2,4] triazolo [1, 5-A] pyrazines as Syk tryrosine kinase inhibitors and GCN2 serin kinase inhibitors” (Merck Patent GmbH, priority 2012, dated 2015)
